Measured values taken from US8563259B2, “Complement-mediated thrombophilic assay” (The Trustees of the University of Pennsylvania, priority 2007, dated 2013).

Tested on: TF expression induced by activated complement in normal primary cells (monocytes or neutrophils)
Test: modified PT (mPT) assay with supernatant of healthy primary cells stimulated with patient serum, with or without complement inhibitor
Type: cell-based, human
Description: To test serum for complement activating activity, serum was obtained from patients diagnosed with various disorders. Serum was obtained from patients diagnosed with: antiphospholipid syndrome (APS; n=26), systemic lupus erythymatosus (SLE; n=9), rheumatoid arthritis (n=12), sepsis (n=6), metastatic cancer (n=8) and inherited hypercoagulation (n=9). Serum was also obtained from healthy individuals (n=22).
Freshly obtained primary cells (monocytes or neutrophils) obtained from healthy donors were suspended in phosphate buffered saline (PBS). In parallel, the cells were stimulated with patient serum and with patient serum that was pre-incubated for 30 minutes with either 15 μM Compstatin or 10 μM C5aR antagonist to inhibit complement. The cells were incubated with serum for approximately 2 to 2.5 hours at 37° C. Subsequently, supernatant from the serum-incubated cells was obtained by centrifugation at 1000×g for 10 minutes. The supernatant was then assessed in a modified PT assay.
In a standard PT assay, 100 μl patient plasma is mixed with 200 μl commercial thromboplastin (International Sensitivity Index (ISI) 1.0 or ISI 1.9), and time of clotting is assessed by measuring in seconds the time required for clot formation after thromboplastin is added. In the modified PT (mPT) assay, 100 μl platelet-poor plasma (PPP) from a healthy subject was used and about 120-130 μl of the commercial thromboplastin (also called tissue factor) was replaced with PBS (the total volume of clotting reaction remains stable, at 300 μl) in order to obtain a technical prolongation of the clotting time from about 12-13 seconds to about 32-37 seconds. To test the effect of the test serum on TF expression of healthy primary blood cells, the about 120-130 μl PBS was replaced with about 120-130 μl of supernatant from the primary cells stimulated with test serum. All mPT assays were performed independently by two experienced physicians.
When complement is activated in the test serum, the use of 120-130 μl supernatant in the mPT test reduces the clotting time from about 32-37 sec to about 18-20 seconds. This reduction in clotting time occurs because TF expression is induced in the normal primary cells by the activated complement. When the activated complement in the test serum has been inhibited (e.g., with Compstatin or C5aR antagonist), TF expression is not induced by activated complement in normal primary cells and the mPT remains unchanged (about 32 to about 37 seconds).

CC[C@H](C)[C@H](N)C(=O)N[C@H]1CSSC[C@@H](C(=O)N[C@H](C(N)=O)[C@@H](C)O)NC(=O)[C@H](CCCN=C(N)N)NC(=O)[C@H](Cc2cnc[nH]2)NC(=O)[C@H](Cc2cnc[nH]2)NC(=O)CNC(=O)[C@H](Cc2c[nH]c3ccccc23)NC(=O)[C@H](CC(=O)O)NC(=O)[C@H](CCC(N)=O)NC(=O)[C@H](C(C)C)NC(=O)[C@H](C(C)C)NC1=O [Compstatin, Ile-Cys-Val-Val-Gln-Asp-Trp-Gly-His-His-Arg-Cys-Thr]
sensitivity of the mPT test after Compstatin-mediated inhibition of complement (pro-coagulant activity completely abolished) (APS and SLE patients): 100% | Clotting time (APS serum (n = 26), serum pre-incubated 30 minutes with 15 μM Compstatin or 10 μM C5aR antagonist): 31.11 ± 0.26 s | Clotting time (Acute sepsis serum (n = 6), serum pre-incubated 30 minutes with 15 μM Compstatin or 10 μM C5aR antagonist): 28.97 ± 0.80 s | Clotting time (Healthy donor serum (n = 22), serum pre-incubated 30 minutes with 15 μM Compstatin or 10 μM C5aR antagonist): 31.19 ± 0.16 s | Clotting time (Inherited hypercoagulation serum (n = 9), serum pre-incubated 30 minutes with 15 μM Compstatin): 29.01 ± 1.08 s | Clotting time (Metastatic cancer serum (n = 8), serum pre-incubated 30 minutes with 15 μM Compstatin): 26.07 ± 1.21 s | Clotting time (Rheumatoid arthritis serum (n = 12), serum pre-incubated 30 minutes with 15 μM Compstatin): 30.26 ± 0.81 s | Clotting time (SLE serum (n = 9), serum pre-incubated 30 minutes with 15 μM Compstatin or 10 μM C5aR antagonist): 31.26 ± 0.17 s | difference in clotting time before and after inhibition in acute sepsis, as share of the time difference for either APS or SLE serum (acute sepsis serum versus APS or SLE serum): about 30% | effect of treatment on clotting time (sera from septic patients): partial inhibition
